This is an account of results in PMC12682947, “Identification of New KCNT1‐Epilepsy Drugs by In Silico, Cell, and Drosophila Modeling” (Annals of Neurology, 2025).

The assay has as its target T1, R928C mutant KCNT1 channels (Homo sapiens, UniProt Q5JUK3, R909C).
T1 construct: YFP-6His; expressed in transfected cells; host or cells: HEK293T
T1 sequence (Q5JUK3 1-1235 isoform Q5JUK3-3 R928C): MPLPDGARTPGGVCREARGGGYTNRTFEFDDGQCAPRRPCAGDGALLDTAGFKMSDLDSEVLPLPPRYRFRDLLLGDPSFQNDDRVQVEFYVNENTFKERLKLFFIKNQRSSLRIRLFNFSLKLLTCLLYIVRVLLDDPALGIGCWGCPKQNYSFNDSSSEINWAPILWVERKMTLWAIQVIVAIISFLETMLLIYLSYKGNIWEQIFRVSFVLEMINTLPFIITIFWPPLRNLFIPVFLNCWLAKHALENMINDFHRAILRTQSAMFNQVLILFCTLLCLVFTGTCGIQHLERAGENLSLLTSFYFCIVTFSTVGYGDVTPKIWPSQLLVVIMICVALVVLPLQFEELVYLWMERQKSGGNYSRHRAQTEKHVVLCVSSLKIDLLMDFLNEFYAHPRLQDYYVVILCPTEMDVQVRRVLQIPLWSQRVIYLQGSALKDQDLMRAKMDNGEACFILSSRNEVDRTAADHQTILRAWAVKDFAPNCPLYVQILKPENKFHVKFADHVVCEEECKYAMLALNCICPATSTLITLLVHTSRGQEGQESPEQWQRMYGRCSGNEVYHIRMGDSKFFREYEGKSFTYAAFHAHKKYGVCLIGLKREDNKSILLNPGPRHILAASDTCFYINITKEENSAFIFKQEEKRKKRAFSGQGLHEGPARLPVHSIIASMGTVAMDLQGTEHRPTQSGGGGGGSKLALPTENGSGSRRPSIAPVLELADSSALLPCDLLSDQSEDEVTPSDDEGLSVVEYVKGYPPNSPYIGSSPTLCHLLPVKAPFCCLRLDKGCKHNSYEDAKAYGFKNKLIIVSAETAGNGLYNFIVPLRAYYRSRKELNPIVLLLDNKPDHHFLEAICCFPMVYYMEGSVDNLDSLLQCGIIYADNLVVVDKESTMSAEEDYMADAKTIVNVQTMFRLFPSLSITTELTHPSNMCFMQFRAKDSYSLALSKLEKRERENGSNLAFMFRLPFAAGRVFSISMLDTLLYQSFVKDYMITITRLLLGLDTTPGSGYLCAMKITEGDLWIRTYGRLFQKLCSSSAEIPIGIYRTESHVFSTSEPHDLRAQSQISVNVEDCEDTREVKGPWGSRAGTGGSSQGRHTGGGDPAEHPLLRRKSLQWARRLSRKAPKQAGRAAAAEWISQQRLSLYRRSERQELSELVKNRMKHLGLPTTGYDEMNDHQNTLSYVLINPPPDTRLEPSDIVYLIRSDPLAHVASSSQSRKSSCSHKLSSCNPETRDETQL
The assay can be described thus: Inside-out patch clamp of HEK293T cells expressing R928C KCNT1. It is filed as cell-based. Conditions: inside-out patches, mean ± SEM. As to the method: The CHO cells were cultured in Dulbecco's modified Eagle's Medium (ThermoFisher, UK) supplemented with 10% (v/v) fetal bovine serum, 50 U/ml penicillin and 0.05 mg/ml streptomycin, and incubated at 37°C in 5% CO2 atmosphere. For whole cell recording of WT/Y796H KCNT1, CHO cells were transiently co‐transfected with concatemeric WT/Y796H and EYFP, as described previously.[29] For electrophysiological experiments, cells were plated onto borosilicate glass cover slips and used 2 to 4 days later. Human embryonic kidney 293T cells (HEK293T) were cultured in the same manner, but with medium supplemented with 2 mM L‐glutamine, and 1% (v/v) nonessential amino acids. For excised inside‐out recording of homomeric WT or mutant YFP‐tagged KCNT1, HEK293T cells plated on glass cover slips were transfected using Attractene Transfection Reagent (Qiagen, Germany) according to the manufacturer's instructions and used 2 to 3 days later.
Inside‐out patch clamp recordings were made at room temperature (23°C) from transiently transfected HEK293T cells, as described previously.[11] The pipette solution contained, in mM, 140 NaCl, 4 KCl, 2 CaCl2, 2 MgCl2, and 10 HEPES adjusted to pH 7.4 with NaOH. […] KCNT1 currents were recorded using 2 voltage protocols, depending on the number of active channels in the patch before drug application. Macroscopic currents (number of active channels > 15) were recorded in response to 100 ms voltage ramps between −120 and 120 mV applied every 2 seconds from a holding potential of −78 mV. […] With a lower number of active channels in the patch (3–15), current traces were recorded in response to 15‐second voltage steps to −20, 0, and 20 mV from a holding potential of −78 mV. Currents recorded at each voltage and each drug concentration were averaged over the duration of the trace and normalized to the average amplitudes of the corresponding current traces in drug‐free solution. […] Single channel data were analyzed using Ana software developed by Dr Michael Pusch (Istituto di Biofisica, Genova, Italy; http://users.ge.ibf.cnr.it/pusch/programs-mik.htm). […]

Structures can show the parent of a compound that is named as a salt.

`O=C(OCCN1CCN(c2cccc(C(F)(F)F)c2)CC1)c1ccccc1Nc1ccnc2cc(C(F)(F)F)ccc12` [antrafenine] yielded an IC50 of 12.3 ± 3.9 nM.

As to `Cc1c(O)cccc1C(=O)N[C@@H](CSc1ccccc1)[C@H](O)CN1C[C@H]2CCCC[C@H]2C[C@H]1C(=O)NC(C)(C)C` [nelfinavir mesylate], the IC50 came out at 8 ± 1.1 nM.

Regarding `CC(C)c1c(C(=O)Nc2ccccc2)c(-c2ccccc2)c(-c2ccc(F)cc2)n1CC[C@@H](O)C[C@@H](O)CC(=O)O` [atorvastatin], half-maximal inhibition (IC50) was put at 1200 ± 300 nM.
